Laboratory results: PubChem BioAssay (NCI)
Where “and” joins values, the source holds several entries; their conditions need not be identical. Equal values may be shown once.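 Five compound concentrations were applied to cells in 96-well plates for 48 hours; endpoints were derived by simple linear interpolation of the resulting dose-response curve. GI50 marks 50% less growth. The concentration for full growth arrest is given as TGI.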

Experiments:
Assay in all cases: NCI tumour cell line growth inhibition, 48 h
KM12 colon = system: KM12 colon
K-562 leukemia = system: K-562 leukemia
OVCAR-8 ovarian = system: OVCAR-8 ovarian
UO-31 renal = system: UO-31 renal
DU-145 prostate = system: DU-145 prostate
EKVX NSCLC = system: EKVX NSCLC
SW-620 colon = system: SW-620 colon
HL-60(TB) leukemia = system: HL-60(TB) leukemia
SNB-19 CNS = system: SNB-19 CNS
NCI-H23 lung = system: NCI-H23 lung

SMILES	GI50 (KM12 colon)	TGI (KM12 colon)	GI50 (K-562 leukemia) [µM]	TGI (K-562 leukemia)	GI50 (OVCAR-8 ovarian)	TGI (OVCAR-8 ovarian)	TGI (UO-31 renal)	GI50 (DU-145 prostate)	TGI (DU-145 prostate)	GI50 (EKVX NSCLC)	TGI (EKVX NSCLC)	GI50 (SW-620 colon)	TGI (SW-620 colon)	GI50 (HL-60(TB) leukemia) [µM]	TGI (HL-60(TB) leukemia)	GI50 (SNB-19 CNS)	TGI (SNB-19 CNS)	GI50 (NCI-H23 lung)	TGI (NCI-H23 lung)	GI50 (UO-31 renal)
N=C(N)c1ccc(OCCCCCOc2ccc(C(=N)N)cc2)cc1	2.5 µM and 6.35 µM and 14.3 µM	14.3 µM and 20.9 µM and 31 µM	2.8	32.7 µM and 15.4 µM and > 100 µM	2.05 µM	12.9 µM and 22.5 µM and 86.6 µM	> 100 µM	5.64 µM	11.9 µM and 27.9 µM and 28.7 µM	8.89 µM	> 50 µM and 45.5 µM and 72.6 µM	5.17 µM and 8.95 µM and 18.1 µM	> 50 µM and 57.7 µM and 86.9 µM	7.34	24 µM and 56 µM and > 100 µM	2.79 µM	24.5 µM and 54.6 µM and 32.3 µM	3.34 µM	> 50 µM and 25.4 µM and 29 µM	
O=[N+]([O-])c1ccc(/C=C\c2ccc3c(c2)OCO3)c([N+](=O)[O-])c1		54 µM		50.2 µM		45.5 µM	54.5 µM		47 µM		28.1 µM		41.6 µM		39 µM		33.6 µM		48.6 µM	
C=CC[PH+](c1ccccc1)c1ccccc1.C=CC[PH+](c1ccccc1)c1ccccc1.[Pt+2].[S-]c1ncccn1.[S-]c1ncccn1	28.4 µM	> 100 µM	2.99	> 100 µM	4.44 µM	> 100 µM	18 µM	23.9 µM	> 100 µM	26.9 µM	> 100 µM	4.75 µM	29.7 µM	7.95	90.2 µM	58.9 µM	> 100 µM	17.9 µM	59 µM	3.75 µM
Nc1ccn([C@@H]2S[C@H](CO)[C@@H](O)[C@@H]2F)c(=O)n1	8.65 µM	> 100 µM	0.23	> 100 µM	0.026 µM	> 100 µM		0.0424 µM	> 100 µM	0.648 µM	> 100 µM	0.252 µM	> 100 µM	0.0792		0.0581 µM	> 100 µM	0.0586 µM	> 49 µM	0.0356 µM
Nc1n[nH]c2ccc([C@@H]3Nc4c(F)cc5[nH]ncc5c4[C@H]4C5CCC(C5)[C@@H]34)cc12 (stereo partly specified)	0.287 µM	4.87 µM	0.0546	> 52.1 µM	0.468 µM	> 100 µM	> 52.6 µM	0.419 µM	> 46.2 µM	0.632 µM	> 71.5 µM	0.318 µM	> 49.1 µM	0.243	0.642 µM	0.515 µM	> 62.9 µM	0.46 µM	21.8 µM	0.587 µM
CCN(CC)CCS(=O)(=O)CCNc1ccnc2cc(Cl)ccc12	2.41 µM	> 24.3 µM	0.96	> 49.8 µM	2.54 µM	> 27.3 µM	8.8 µM	2.43 µM	> 32.8 µM	4.31 µM	> 46.1 µM	0.608 µM	12.5 µM	1.37	20 µM	6.69 µM	> 100 µM	2.1 µM	14.9 µM	0.682 µM
Cc1cc2c(cc1C)[n+](=O)c(C(=O)/C=C/c1ccccc1[N+](=O)[O-])c(C)n2[O-]		> 100 µM		> 100 µM		> 100 µM	> 100 µM		> 100 µM		99.1 µM		> 100 µM		> 100 µM		42.3 µM		63 µM	
C=CC(C)(O)CCC1C(=C)C(O)CC2C(C)(C)CCCC12C (stereo unspecified)		52.1 µM		33.2 µM		71.4 µM	28.5 µM		37.2 µM		36.8 µM		43.5 µM		35.9 µM		35.6 µM		38.3 µM	
Cc1n(Cc2ccc3ccccc3n2)cc[n+]1Cc1ccc2ccccc2c1	0.488 µM	3.8 µM	0.422	12.9 µM	1.29 µM	11.2 µM	36.1 µM	2.08 µM	14.8 µM	2.17 µM	21 µM	1.82 µM	13.3 µM	0.344	1.46 µM	0.438 µM	12.1 µM	0.935 µM	9.81 µM	13.6 µM
Cc1ccc(NC(=O)c2ccc(NC3=C(Cl)C(=O)N(Cc4ccccc4)C3=O)cc2)cc1Cl	31 µM	> 100 µM	2.23	12 µM	9.96 µM	21.5 µM	2.71 µM	0.624 µM	7.73 µM	26.4 µM	> 100 µM	1.99 µM	11.8 µM		14.6 µM	60.5 µM	> 100 µM	11.3 µM	29.8 µM	1.41 µM
CC1=NN(c2nc(N)nc(/C=C\c3ccccc3)n2)C(C)(C)C1	1.59 µM	10.5 µM	3.98	22.1 µM	5.33 µM	39 µM	28.5 µM	3.16 µM	15.5 µM	12.5 µM	45.8 µM	4.48 µM	44.2 µM	10.8	39.5 µM	20.3 µM	42.9 µM	4.37 µM	18 µM	13.5 µM
COc1cc2c(cc1OC)C(SC)C(=O)N(Cc1cccc(OC)c1OC)CC2 (stereo unspecified)		40.3 µM		41.4 µM		70.9 µM	70 µM		> 23 µM		> 100 µM		> 100 µM		5.63 µM		> 100 µM		18.2 µM	
Oc1c(I)cc(Cl)c2cccnc12	5.98 µM and 18.2 µM	49.9 µM and 47.7 µM	3.91	> 100 µM	3.96 µM and 27.2 µM	> 100 µM and 99.3 µM	11.5 µM and 52.9 µM	5.9 µM and 21.2 µM	> 100 µM and 50.6 µM	2.89 µM and 25.4 µM	18 µM and 57.9 µM	4.05 µM and 3.73 µM	> 100 µM and 32.5 µM	2.77	6.22 µM	3.71 µM and 9.32 µM	> 100 µM	3.74 µM and 8.04 µM	31.4 µM and > 100 µM	2.35 µM and 22.1 µM
Oc1ccc(-c2[nH]c3ccccc3c2-c2nc3ccccc3o2)cc1	2.05 µM	6.95 µM	3.98	21.8 µM	4.57 µM	20.9 µM	13.9 µM	5.69 µM	18.3 µM	4.76 µM	21.9 µM	3.04 µM	13.4 µM	12.1	49.5 µM	6.77 µM	22.1 µM	2.26 µM	9.88 µM	0.893 µM
